Measured values taken from patent publication US12227500B2, “Substituted pyrrolo[2,3-b]pyridines for suppressing toxic endoplasmic reticulum stress” (THE TRUSTEES OF COLUMBIA UNIVERSITY IN THE CITY OF NEW YORK, priority 2018, dated 2025).
Where two headings read alike, the source gives them in different places.

Assays:
HGK/MAP4K4 = HGK/MAP4K4 (Homo sapiens, UniProt O95819); experiment: Radiolabeled ATP kinase assay (Reaction Biology Corp.), HGK; assay type: biochemical; set-up: purchased Reaction Biology Corp; settings: 10 μM ATP, read-out: % Enzyme Activity (relative to DMSO controls), HGK/MAP4K4, Data 1; for remaining activity at 0.025 µM: [Cmpd] 0.025 μM; for remaining activity at 0.1 µM: [Cmpd] 0.1 μM
Sequence of HGK/MAP4K4 (O95819 whole entry): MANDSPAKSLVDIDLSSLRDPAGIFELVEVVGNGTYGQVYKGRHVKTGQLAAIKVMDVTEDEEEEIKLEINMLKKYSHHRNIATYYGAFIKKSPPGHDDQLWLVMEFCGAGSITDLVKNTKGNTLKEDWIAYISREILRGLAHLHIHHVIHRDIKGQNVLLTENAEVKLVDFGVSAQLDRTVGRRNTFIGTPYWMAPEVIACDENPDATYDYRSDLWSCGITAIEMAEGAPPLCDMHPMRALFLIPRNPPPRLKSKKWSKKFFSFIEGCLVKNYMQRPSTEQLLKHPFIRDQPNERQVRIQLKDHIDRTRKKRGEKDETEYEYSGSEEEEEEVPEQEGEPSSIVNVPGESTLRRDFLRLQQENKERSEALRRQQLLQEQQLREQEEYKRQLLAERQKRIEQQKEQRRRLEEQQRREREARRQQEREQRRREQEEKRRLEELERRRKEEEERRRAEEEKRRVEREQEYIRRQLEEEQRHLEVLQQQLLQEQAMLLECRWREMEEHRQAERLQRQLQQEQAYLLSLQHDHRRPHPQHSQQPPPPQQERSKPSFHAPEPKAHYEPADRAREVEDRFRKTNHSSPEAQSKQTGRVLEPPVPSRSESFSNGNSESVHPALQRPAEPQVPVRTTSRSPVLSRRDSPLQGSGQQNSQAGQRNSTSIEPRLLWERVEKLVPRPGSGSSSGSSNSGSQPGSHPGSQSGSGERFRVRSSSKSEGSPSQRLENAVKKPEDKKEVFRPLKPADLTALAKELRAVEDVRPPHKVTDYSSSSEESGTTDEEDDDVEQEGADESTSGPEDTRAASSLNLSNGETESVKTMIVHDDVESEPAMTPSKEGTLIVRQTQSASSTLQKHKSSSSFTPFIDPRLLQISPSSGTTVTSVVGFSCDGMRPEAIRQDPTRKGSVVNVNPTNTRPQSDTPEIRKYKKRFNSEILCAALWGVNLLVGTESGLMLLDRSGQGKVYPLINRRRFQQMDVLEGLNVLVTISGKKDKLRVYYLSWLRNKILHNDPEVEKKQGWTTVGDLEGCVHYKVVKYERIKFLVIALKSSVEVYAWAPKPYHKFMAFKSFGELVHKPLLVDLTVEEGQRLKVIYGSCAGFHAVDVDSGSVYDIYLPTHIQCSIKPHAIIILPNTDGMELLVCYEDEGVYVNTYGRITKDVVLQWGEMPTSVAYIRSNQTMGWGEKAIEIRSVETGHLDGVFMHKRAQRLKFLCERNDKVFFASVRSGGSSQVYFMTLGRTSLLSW
Experimental: (§1) Meanwhile, the same analogs were analyzed in a radiolabeled ATP assay (10 μM ATP; Reaction Biology Corp.) to compare the extent to which they could inhibit the activity of HGK, MLK1, or MLK3 in a cell-free environment (Table S3 and S4).

MLK1/MAP3K9 = target: T1, MLK1/MAP3K9 (Homo sapiens, UniProt P80192); experiment: Radiolabeled ATP kinase assay (Reaction Biology Corp.), MLK1; assay type: biochemical; settings: [Cmpd] 0.1 μM, 10 μM ATP
T1 construct: purchased Reaction Biology Corp
T1 sequence (P80192 whole entry): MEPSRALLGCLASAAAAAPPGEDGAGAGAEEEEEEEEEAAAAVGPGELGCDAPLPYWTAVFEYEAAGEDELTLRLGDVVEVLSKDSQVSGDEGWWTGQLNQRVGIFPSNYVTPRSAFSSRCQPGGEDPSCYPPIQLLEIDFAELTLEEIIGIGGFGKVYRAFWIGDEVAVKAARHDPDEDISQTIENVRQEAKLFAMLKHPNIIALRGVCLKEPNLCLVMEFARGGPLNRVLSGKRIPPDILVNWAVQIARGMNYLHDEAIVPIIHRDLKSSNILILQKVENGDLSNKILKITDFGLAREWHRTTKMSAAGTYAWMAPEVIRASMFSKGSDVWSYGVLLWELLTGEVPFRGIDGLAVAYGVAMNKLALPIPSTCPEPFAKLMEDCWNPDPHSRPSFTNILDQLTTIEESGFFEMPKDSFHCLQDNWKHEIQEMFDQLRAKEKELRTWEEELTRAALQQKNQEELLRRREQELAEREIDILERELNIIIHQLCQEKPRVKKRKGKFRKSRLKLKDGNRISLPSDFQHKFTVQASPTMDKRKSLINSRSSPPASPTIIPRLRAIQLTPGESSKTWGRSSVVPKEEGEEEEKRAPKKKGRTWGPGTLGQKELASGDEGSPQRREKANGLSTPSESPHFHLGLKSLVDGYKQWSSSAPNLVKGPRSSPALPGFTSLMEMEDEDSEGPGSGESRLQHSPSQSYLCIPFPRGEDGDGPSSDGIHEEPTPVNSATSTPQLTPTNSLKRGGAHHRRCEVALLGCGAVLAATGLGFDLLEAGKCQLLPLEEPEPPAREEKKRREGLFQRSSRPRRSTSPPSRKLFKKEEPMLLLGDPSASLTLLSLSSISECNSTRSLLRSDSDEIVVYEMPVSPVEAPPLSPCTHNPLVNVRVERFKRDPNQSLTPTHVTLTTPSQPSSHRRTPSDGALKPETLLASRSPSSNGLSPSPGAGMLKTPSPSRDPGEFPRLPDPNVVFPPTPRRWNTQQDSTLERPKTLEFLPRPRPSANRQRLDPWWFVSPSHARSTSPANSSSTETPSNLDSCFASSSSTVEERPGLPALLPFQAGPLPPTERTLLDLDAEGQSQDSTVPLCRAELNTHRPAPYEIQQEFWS
Experimental: as §1

MLK3/MAP3K11 = target: T2, MLK3/MAP3K11 (Homo sapiens, UniProt Q16584); experiment: Radiolabeled ATP kinase assay (Reaction Biology Corp.), MLK3; assay type: biochemical; settings: [Cmpd] 0.1 μM; 10 μM ATP
T2 construct: purchased Reaction Biology Corp
T2 sequence (Q16584 whole entry): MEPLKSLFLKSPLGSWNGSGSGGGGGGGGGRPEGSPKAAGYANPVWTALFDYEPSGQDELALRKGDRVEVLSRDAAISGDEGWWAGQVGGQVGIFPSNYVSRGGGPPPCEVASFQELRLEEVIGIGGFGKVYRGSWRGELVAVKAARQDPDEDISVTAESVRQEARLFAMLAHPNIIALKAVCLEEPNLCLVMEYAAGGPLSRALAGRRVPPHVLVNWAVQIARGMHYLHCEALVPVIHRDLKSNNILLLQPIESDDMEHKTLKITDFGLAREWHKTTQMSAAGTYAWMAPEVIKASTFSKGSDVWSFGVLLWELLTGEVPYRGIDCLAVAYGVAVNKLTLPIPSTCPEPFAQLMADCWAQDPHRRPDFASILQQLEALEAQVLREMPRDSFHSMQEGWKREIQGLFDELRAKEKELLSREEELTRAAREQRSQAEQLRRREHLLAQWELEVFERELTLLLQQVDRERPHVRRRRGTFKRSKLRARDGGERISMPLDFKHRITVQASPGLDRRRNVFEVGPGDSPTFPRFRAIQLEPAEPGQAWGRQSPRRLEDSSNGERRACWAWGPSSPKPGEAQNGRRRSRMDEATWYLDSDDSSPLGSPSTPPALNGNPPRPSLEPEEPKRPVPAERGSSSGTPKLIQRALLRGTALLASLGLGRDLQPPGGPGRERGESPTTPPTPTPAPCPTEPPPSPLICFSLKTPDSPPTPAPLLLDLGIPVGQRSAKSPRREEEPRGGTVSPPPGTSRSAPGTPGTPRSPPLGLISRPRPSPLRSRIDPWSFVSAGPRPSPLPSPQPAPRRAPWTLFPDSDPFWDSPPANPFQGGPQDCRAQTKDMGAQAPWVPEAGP
Experimental: as §1

[1] = system: human ES motor neurons carrying the ALS-causing SOD1^A4V mutation; experiment: cells; assay type: cell-based; settings: 72 h, 72 h; for EC50 / Emax: CPA 33 μM; for viability at 1 µM: CPA (33 μM) + compound (1 μM), read-out: Motor Neuron Survival, % untreated; for Emax: read-out: Emax (MN survival % untreated)
Experimental: Next, survival assays were performed with all the analogs at once to generate a low-variability dataset. All compounds were evaluated at concentrations ranging from 0.1-3.0 μM (five-point dilution) in three technical replicates and two biological replicates.

[2] = read-out: % Enzyme Activity Remaining (relative to DMSO controls), MLK1/MAP3K9, Data 1
[3] = read-out: % Enzyme Activity Remaining (relative to DMSO controls), MLK1/MAP3K9, Data 2
[4] = Homo sapiens, Neuron, read-out: EC50

Row | Structure (SMILES) | remaining activity at 0.025 µM (HGK/MAP4K4) [%] | remaining activity at 0.1 µM (HGK/MAP4K4) [%] | remaining activity at 0.1 µM (MLK1/MAP3K9; [2]) [%] | remaining activity at 0.1 µM (MLK1/MAP3K9; [3]) [%] | % Enzyme Activity Remaining (relative to DMSO controls), MLK3/MAP3K11, Data 1 (MLK3/MAP3K11) [%] | % Enzyme Activity Remaining (relative to DMSO controls), MLK3/MAP3K11, Data 2 (MLK3/MAP3K11) [%] | EC50 [1, 4] [nM] | viability at 1 µM ([1]; Homo sapiens, Neuron) [%] | Emax ([1]; Homo sapiens, Neuron) [%] | EC50 [1]
1 | CN1CCN(Cc2ccc(-c3cnc4[nH]cc(-c5cccc(C(F)(F)F)c5)c4c3)cc2)CC1 [Compound 7ab, 5-(4-((4-Methylpiperazin-1-yl)methyl)phenyl)-3-(3-(trifluoromethyl)phenyl)-1H-pyrrolo[2,3-b]pyridine] | 26.6 | 4.65 | 83.7 | 82.9 | 68.47 | 70.51 | 1280 | 60.7 | 60.7 | –
2 | CN1CCN(Cc2ccc(-c3cnc4[nH]cc(-c5ccccc5)c4c3)cc2)CC1 [Compound 7ac, 5-(4-((4-Methylpiperazin-1-yl)methyl)phenyl)-3-phenyl-1H-pyrrolo[2,3-b]pyridine] | 31.9 | 6.69 | 60.8 | 57.7 | 42.00 | 43.30 | 774 | 75.9 | 110 | –
3 | CN1CCN(Cc2ccc(-c3cnc4[nH]cc(-c5ccc(Cl)cc5Cl)c4c3)cc2)CC1 [Compound 7ae, 3-(2,4-Dichlorophenyl)-5-(4-((4-methylpiperazin-1-yl)methyl)phenyl)-1H-pyrrolo[2,3-b]pyridine] | 67.9 | 42.7 | 92.5 | 91.8 | 84.17 | 86.93 | 533 | 32 | 32 | –
4 | Cc1ccc(C)c(-c2c[nH]c3ncc(-c4ccc(CN5CCN(C)CC5)cc4)cc23)c1 [Compound 7af, 3-(2,5-Dimethylphenyl)-5-(4-((4-methylpiperazin-1-yl)methyl)phenyl)-1H-pyrrolo[2,3-b]pyridine] | 69 | 38.7 | 92.6 | 90.6 | 75.32 | 81.31 | 1340 | 38.6 | 67.5 | –
5 | CN1CCN(Cc2ccc(-c3cnc4[nH]cc(-c5ccc6cnn(C)c6c5)c4c3)cc2)CC1 [Compound 7ag, 1-Methyl-6-(5-(4-((4-methylpiperazin-1-yl)methyl)phenyl)-1H-pyrrolo[2,3-b]pyridin-3-yl)-1H-indazole] | 32.5 | 7.91 | 50.9 | 50 | 54.67 | 52.80 | 418 | 73.3 | 88 | –
6 | CNC(=O)Nc1cccc(-c2c[nH]c3ncc(-c4ccc(CN5CCN(C)CC5)cc4)cc23)c1 [Compound 7ak, 1-Methyl-3-(3-(5-(4-((4-methylpiperazin-1-yl)methyl)phenyl)-1H-pyrrolo[2,3-b]pyridin-3-yl)phenyl)urea] | 41.7 | 14.2 | 34.2 | 32.8 | 48.06 | 48.02 | 650 | 78.5 | 112 | –
7 | COC(=O)Nc1cccc(-c2c[nH]c3ncc(-c4ccc(CN5CCN(C)CC5)cc4)cc23)c1 [Compound 7al, Methyl (3-(5-(4-((4-methylpiperazin-1-yl)methyl)phenyl)-1H-pyrrolo[2,3-b]pyridin-3-yl)phenyl)carbamate] | 33.8 | 6.76 | 33.4 | 32.7 | 32.96 | 30.90 | 670 | – | 113 | –
8 | CNC(=O)Nc1ccc(-c2c[nH]c3ncc(-c4ccc(CN5CCN(C)CC5)cc4)cc23)cc1 [Compound 7am, 1-Methyl-3-(4-(5-(4-((4-methylpiperazin-1-yl)methyl)phenyl)-1H-pyrrolo[2,3-b]pyridin-3-yl)phenyl)urea] | 56 | 17.7 | 51 | 51.2 | 49.77 | 46.17 | 948 | 80 | 122 | –
9 | COC(=O)Nc1ccc(-c2c[nH]c3ncc(-c4ccc(CN5CCN(C)CC5)cc4)cc23)cc1 [Compound 7an, Methyl (4-(5-(4-((4-methylpiperazin-1-yl)methyl)phenyl)-1H-pyrrolo[2,3-b]pyridin-3-yl)phenyl)carbamate] | 39.9 | 10.2 | 68.7 | 65.4 | 65.74 | 63.06 | 534 | 75 | 100 | –
10 | COc1ccc(COc2ccc(-c3c[nH]c4ncc(-c5ccc(CN6CCN(C)CC6)cc5)cc34)cc2)cc1 [Compound 7ao, 3-(4-((4-Methoxybenzyl)oxy)phenyl)-5-(4-((4-methylpiperazin-1-yl)methyl)phenyl)-1H-pyrrolo[2,3-b]pyridine] | 21.3 | 1.98 | 49 | 47.1 | 35.75 | 32.77 | – | 95.9 | 95.9 | Ambiguous
11 | CN1CCN(Cc2ccc(-c3cnc4[nH]cc(-c5cccc(OCc6ccccc6)c5)c4c3)cc2)CC1 [Compound 7ar, 3-(3-(Benzyloxy)phenyl)-5-(4-((4-methylpiperazin-1-yl)methyl)phenyl)-1H-pyrrolo[2,3-b]pyridine] | 55.5 | 27.4 | 70.1 | 68 | 44.17 | 45.09 | 583 | 37.4 | 37.4 | –
12 | CN1CCN(Cc2ccc(-c3cnc4[nH]cc(-c5ccc(F)c(C(=O)NCc6ccco6)c5)c4c3)cc2)CC1 [Compound 7av, 2-Fluoro-N-(furan-2-ylmethyl)-5-(5-(4-((4-methylpiperazin-1-yl)methyl)phenyl)-1H-pyrrolo[2,3-b]pyridin-3-yl)benzamide] | 88.8 | 51.2 | 86 | 84.2 | 84.24 | 86.99 | 1050 | 34.5 | 53.5 | –
